Test results taken from ChEMBL document CHEMBL1201862, “PubChem BioAssay data set” (2004).
Activity calls are given as the source filed them. Cut-off read from the data, not from the text of the source, for most assays here: actives have a measured EC50 and inactives only a lower limit.

Assays:
[1] = target: T1, Corticotropin-releasing factor receptor 2/Corticotropin-releasing factor-binding protein (Homo sapiens, UniProt P24387+Q13324); assay: activators of CRF receptor 2 with binding protein – uHTS hits, confirmation (AID 602473); assay type: functional; details: read-out: EC50_Mean
T1 sequence (Q13324 whole entry): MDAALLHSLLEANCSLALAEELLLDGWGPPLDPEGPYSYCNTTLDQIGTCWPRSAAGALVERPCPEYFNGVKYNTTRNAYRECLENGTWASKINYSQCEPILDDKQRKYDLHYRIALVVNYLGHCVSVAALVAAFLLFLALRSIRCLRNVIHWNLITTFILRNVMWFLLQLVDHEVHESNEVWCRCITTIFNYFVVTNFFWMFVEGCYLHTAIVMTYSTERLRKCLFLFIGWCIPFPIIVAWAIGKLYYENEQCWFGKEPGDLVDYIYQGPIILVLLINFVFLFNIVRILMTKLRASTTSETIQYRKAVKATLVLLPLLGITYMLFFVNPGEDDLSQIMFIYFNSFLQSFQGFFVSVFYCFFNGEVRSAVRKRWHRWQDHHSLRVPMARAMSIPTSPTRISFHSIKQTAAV
T1 sequence (P24387 whole entry): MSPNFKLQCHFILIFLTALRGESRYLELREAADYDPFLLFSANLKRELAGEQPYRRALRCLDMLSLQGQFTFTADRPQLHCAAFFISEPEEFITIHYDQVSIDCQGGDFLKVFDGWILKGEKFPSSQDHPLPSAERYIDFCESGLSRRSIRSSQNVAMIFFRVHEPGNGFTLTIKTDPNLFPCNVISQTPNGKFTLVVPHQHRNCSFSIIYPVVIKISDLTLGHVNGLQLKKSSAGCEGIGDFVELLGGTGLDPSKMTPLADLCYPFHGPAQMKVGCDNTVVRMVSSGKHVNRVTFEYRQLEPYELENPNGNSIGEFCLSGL

[2] = target: T1, Corticotropin-releasing factor receptor 2/Corticotropin-releasing factor-binding protein; assay: Dose Response confirmation of uHTS hits for small molecule antagonists of the CRF-binding protein and CRF-R2 receptor complex.; assay type: functional; details: read-out: IC50_Mean
[3] = blockers of CRF-binding protein–CRF-R2 complex – cell-based, uHTS hits, 384-well, dose response (AID 651639); assay type: functional, Homo sapiens; details: read-out: IC50_Mean
[4] = target: T2, Calpain-2 catalytic subunit (Sus scrofa, UniProt P43367); assay: m-calpain protease blockers, concentration series – biochemical, fluorogenic peptide substrate, dose response (AID 1420); assay type: functional
T2 sequence (P43367 whole entry): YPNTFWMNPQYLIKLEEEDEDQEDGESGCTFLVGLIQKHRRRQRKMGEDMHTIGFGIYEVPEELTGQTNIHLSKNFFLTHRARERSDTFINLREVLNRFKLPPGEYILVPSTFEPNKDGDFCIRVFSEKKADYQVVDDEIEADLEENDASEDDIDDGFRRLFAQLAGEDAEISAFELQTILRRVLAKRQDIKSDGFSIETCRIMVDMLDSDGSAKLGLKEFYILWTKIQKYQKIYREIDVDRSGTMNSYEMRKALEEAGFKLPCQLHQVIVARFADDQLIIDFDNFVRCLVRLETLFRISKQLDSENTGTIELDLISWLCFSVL

Streptococcus = assay: GAS UMAA2166 growth inhibition – luminescence, BacTiterGlo, counter-screen for streptokinase expression inhibitor project, dose response (AID 1915); assay type: functional, organism-based;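 note: potency for reduction of bacterial viability or growth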
[5] = target: ATP-dependent molecular chaperone HSP82 (Candida albicans (strain WO-1) (Yeast), UniProt C4YTQ8); assay: steroid-induced GRE reporter decrease in yeast – S. cerevisiae, luminescence, Hsp90 inhibitor project, dose response (AID 2400); assay type: functional, cell-based;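 note: beta-galactosidase luminescence from glucocorticoid response element reporter as proxy for Hsp90 function; inhibitor potency where signal loss means Hsp90 inhibition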
ATP-dependent molecular chaperone HSP82, sequence (C4YTQ8 whole entry): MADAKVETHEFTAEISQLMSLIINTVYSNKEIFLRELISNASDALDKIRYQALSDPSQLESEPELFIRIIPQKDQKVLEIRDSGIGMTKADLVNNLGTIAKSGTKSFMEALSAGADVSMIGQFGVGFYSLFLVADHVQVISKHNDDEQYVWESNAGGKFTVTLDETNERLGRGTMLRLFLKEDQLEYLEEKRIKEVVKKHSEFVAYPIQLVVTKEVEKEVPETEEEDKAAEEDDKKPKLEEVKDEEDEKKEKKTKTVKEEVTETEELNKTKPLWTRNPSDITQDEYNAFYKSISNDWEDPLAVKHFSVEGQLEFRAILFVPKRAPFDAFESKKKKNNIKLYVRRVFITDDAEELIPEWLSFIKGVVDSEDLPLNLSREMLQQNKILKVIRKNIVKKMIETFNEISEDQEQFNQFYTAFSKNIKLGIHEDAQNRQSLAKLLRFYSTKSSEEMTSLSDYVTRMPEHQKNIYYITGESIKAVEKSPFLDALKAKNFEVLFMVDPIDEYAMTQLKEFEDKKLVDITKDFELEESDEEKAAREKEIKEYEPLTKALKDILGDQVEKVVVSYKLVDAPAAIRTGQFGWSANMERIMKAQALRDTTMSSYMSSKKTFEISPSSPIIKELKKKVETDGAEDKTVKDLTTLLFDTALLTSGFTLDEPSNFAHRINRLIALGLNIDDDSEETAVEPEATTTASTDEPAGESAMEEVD

[6] = NIH-3T3 fibroblast cytotoxicity, dose response, cytotoxicity control, cell-based, fluorescence, Alamar Blue, secondary assay (AID 2327); assay type: functional;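 note: NIH-3T3 mouse fibroblasts cultured with fluconazole at 8 µg/mL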
[7] = fluconazole-exposed Candida albicans growth modulators – fluorescence, retest, confirmation (AID 2467); assay type: functional, cell-based
[8] = Trypanosoma cruzi growth suppression in host cells – NIH3T3 host cells, beta-gal luminescence, confirmation (AID 2044); assay type: functional, cell-based;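 note: intracellular parasites grown in NIH/3T3 mouse fibroblasts as host cells; luminescent beta-galactosidase reporter signal from transgenic T. cruzi replicating inside host cells; inhibitors lower the luminescence signal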
[9] = NIH3T3 cell viability loss – ATP luminescence, mouse fibroblasts, counter-screen, dose response (AID 2010); assay type: functional, cell-based;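 note: cells exposed to compound for about 90 hours before reading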
INS1 = assay: INS-1E survival protection against cytokine death – cell-based, luminescence, retest, dose response (AID 449756); assay type: functional; details: Rattus norvegicus;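 note: cell death triggered by IL-1 beta plus TNF-alpha plus IFN-gamma mixture; protective hits raise ATP signal compared with cytokine alone wells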
[10] = system: Streptococcus sp. 'group A'; assay: Streptococcus pyogenes SK(-)GAS viability under kanamycin – luminescence, BacTiterGlo, confirmation, counter-screen for streptokinase expression inhibitor project, dose response (AID 1900); assay type: functional, organism-based
[11] = target: T3, Serine/threonine-protein phosphatase (Candida dubliniensis (strain CD36 / CBS 7987 / NCPF 3949 / NRRLY-17841) (Yeast), UniProt B9W6M3); assay: blockers of CaCl2-induced CDRE-lacZ signaling – S. cerevisiae, luminescence, secondary, dose response (AID 2388); assay type: functional, cell-based;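 note: yeast reporter cells carrying a calcineurin-responsive lacZ construct stimulated with calcium chloride; luminescent beta-galactosidase reporter signal in whole cells rather than isolated phosphatase activity; potency for inhibition where a drop in reporter signal means calcineurin blockade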
T3 sequence (B9W6M3 whole entry): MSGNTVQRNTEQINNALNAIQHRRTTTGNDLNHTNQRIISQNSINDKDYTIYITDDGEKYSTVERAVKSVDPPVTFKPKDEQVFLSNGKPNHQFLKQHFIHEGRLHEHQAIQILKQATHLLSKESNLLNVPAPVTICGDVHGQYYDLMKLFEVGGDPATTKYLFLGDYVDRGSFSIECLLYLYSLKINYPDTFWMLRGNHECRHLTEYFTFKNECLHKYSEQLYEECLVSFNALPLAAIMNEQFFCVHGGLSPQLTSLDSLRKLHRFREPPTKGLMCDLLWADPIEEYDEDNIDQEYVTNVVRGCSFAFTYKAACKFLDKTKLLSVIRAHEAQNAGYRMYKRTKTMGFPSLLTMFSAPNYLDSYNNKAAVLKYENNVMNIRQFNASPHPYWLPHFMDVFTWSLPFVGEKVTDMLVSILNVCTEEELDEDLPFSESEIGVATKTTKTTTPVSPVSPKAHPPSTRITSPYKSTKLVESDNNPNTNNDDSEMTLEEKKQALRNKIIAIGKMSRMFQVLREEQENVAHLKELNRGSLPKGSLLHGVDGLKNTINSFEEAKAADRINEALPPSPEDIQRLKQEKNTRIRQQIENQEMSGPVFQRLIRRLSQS

Streptokinase A = target: T4, Streptokinase A (Streptococcus pyogenes serotype M1, UniProt P10520); assay: viability-normalized secreted streptokinase activity reduction – plasminogen activation absorbance, OD405, dose response (AID 1914); assay type: functional, Streptococcus pyogenes M1 GAS;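 note: secreted streptokinase activity via plasminogen activation per viability signal from cell pellet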
T4 sequence (P10520 whole entry): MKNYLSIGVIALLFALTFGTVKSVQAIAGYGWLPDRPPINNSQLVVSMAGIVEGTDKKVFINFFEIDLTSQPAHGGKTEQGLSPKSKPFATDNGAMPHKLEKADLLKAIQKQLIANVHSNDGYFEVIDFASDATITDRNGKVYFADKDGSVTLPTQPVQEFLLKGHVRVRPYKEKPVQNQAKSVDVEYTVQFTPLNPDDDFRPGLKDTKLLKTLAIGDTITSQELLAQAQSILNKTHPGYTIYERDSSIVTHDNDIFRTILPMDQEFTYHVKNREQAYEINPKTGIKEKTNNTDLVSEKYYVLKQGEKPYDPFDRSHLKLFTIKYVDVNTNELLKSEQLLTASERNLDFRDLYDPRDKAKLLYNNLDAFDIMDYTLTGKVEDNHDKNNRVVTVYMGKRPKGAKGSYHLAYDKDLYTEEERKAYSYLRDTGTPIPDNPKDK

Cytochrome P450 2D6 = Cytochrome P450 2D6 (Homo sapiens, UniProt P10635);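 note: CYP2D6 member of a cytochrome P450 panel assay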
Cytochrome P450 2D6, sequence (P10635 whole entry): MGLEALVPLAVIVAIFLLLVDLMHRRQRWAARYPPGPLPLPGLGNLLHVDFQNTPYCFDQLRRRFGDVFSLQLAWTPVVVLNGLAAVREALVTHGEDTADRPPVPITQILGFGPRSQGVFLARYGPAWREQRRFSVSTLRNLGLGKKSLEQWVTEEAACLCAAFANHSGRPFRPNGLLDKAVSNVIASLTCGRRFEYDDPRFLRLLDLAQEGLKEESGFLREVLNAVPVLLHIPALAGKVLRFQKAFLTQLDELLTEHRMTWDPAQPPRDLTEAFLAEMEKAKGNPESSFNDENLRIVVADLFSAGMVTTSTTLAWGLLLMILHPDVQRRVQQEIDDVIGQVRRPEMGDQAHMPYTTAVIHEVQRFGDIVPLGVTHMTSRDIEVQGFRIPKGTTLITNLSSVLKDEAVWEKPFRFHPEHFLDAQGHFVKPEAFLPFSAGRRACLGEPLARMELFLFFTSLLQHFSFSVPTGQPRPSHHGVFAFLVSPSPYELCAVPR

## CCOC(=O)Nc1ccc(Oc2ccccc2)cc1
[1]
  EC50: > 53 µM (inactive)
[2]
  IC50: 15.2 µM (active)
[3]
  IC50: > 20 µM (inactive)

## CC(=O)c1ccc(N2CCN(C(=O)c3cccc(Oc4ccccc4)c3)CC2)cc1
[1]
  EC50: > 53 µM (inactive)
[4]
  IC50: 12.3 µM (not active)
[2]
  IC50: 2.16 µM (active)
[3]
  IC50: 6.67 µM (active)

## CCC(=O)NC(c1ccc(C)cc1)c1cc([N+](=O)[O-])c2cccnc2c1O (centres undefined)
Streptococcus
  EC50: 12.7 µM (active)
[5]
  EC50: > 150 µM (inactive)
[6]
  EC50: 21.8 µM (active)
[7]
  EC50: 212 nM (active)
[8]
  EC50: 1.34 µM (active)
[9]
  EC50: 6.02 µM (active)
INS1
  AC50: 5.53 µM (active)
[10]
  EC50: 1.17 µM (active)
[11]
  EC50: > 180 µM (inactive)
Streptokinase A
  EC50: 56.5 µM (active)

## COC(=O)C(NC(=O)c1ccc(F)cc1)(Nc1ncc(S(=O)(=O)c2ccc([N+](=O)[O-])cc2)s1)C(F)(F)F (centres undefined)
[1]
  EC50: > 53 µM (inactive)
Cytochrome P450 2D6
  AC50: 31.6 µM (inconclusive)
[2]
  IC50: 16.3 µM (active)
[3]
  IC50: 14.5 µM (active)

## CCCCN(c1ccc(C(=O)OC)cc1)S(=O)(=O)c1ccccc1
[1]
  EC50: > 53 µM (inactive)
[2]
  IC50: < 0.368 µM (active)
[3]
  IC50: > 20 µM (inactive)
